Experimental data published in paper PMC9099122 (Clinical and Translational Science, 2022).
“And” between values parts separate entries of the source, which are not always exact repeats. Equal entries are not always repeated. Where two headings read alike, the source gives them in different places. Marks after values point to notes of the source that are not given here.

Columns and labels:
[1] = type: in vivo, human; conditions: for M:P AUCinf ratio, relative bioavailability point estimate / M:P AUCt ratio, relative bioavailability point estimate: Day 11 vs. day 1; for Cmax, geometric mean (mean, %CV): N = 20; for change in terminal elimination half-life / change in Tmax: day 11 compared to day 1, all subjects
[2] = test system: P‐gp; conditions: following elagolix 200 mg b.i.d. regimen; cited from earlier work
[3] = test system: P‐gp; conditions: in vitro; cited from earlier work
[4] = test system: CYP2C19; conditions: in vitro; cited from earlier work
[5] = Elagolix plasma concentrations on day 11 of this study; type: in vivo; conditions: female, human, oral, 300 mg
[6] = test system: CYP3A; conditions: in vitro; cited from earlier work
[7] = test system: CYP2C19; experiment: Clinical classification of elagolix as CYP2C19 inhibitor from omeprazole DDI; type: in vivo, human; conditions: elagolix 300 mg b.i.d., FDA criteria for clinical CYP enzyme inhibitors
[8] = test system: CYP3A4; conditions: cited from earlier work
[9] = cited from earlier work
[10] = no reference given; cited from earlier work
[11] = low aqueous solubility and high permeability; cited from earlier work
[12] = rabbits, coadministration with verapamil; cited from earlier work
[13] = Day 1, omeprazole 40 mg (reference)
[14] = Day 11, elagolix 300 mg b.i.d. + omeprazole 40 mg (test)
[15] = Study day 1, omeprazole 40 mg alone
[16] = Study day 11, omeprazole 40 mg + elagolix 300 mg b.i.d.
[17] = day 11 (elagolix 300 mg b.i.d.) vs day 1, all subjects

## COc1ccc2nc([S+]([O-])Cc3ncc(CO)c(OC)c3C)[nH]c2c1 (stereo not shown) [5‐hydroxyomeprazole]
[1]; [13]
  M:P AUCinf ratio, central value: 0.458
  M:P AUCt ratio, central value: 0.471
[1]; [14]
  M:P AUCinf ratio, central value: 0.198
  M:P AUCt ratio, central value: 0.194
[1]
  M:P AUCinf ratio, relative bioavailability point estimate: 0.432
  M:P AUCt ratio, relative bioavailability point estimate: 0.412
  change in terminal elimination half-life: unchanged
[1]; [15]
  AUCinf, geometric mean (mean, %CV): 883 (932, 33) ng•h/ml
  AUCt, geometric mean (mean, %CV): 857 (911, 35) ng•h/ml
  RAUCinf, metabolite-to-omeprazole AUCinf ratio, median (minimum–maximum): 0.61 (0.048–2.3) ^c
  RAUCt, metabolite-to-omeprazole AUCt ratio, median (minimum–maximum): 0.65 (0.044–2.1)
  Tmax, median (minimum–maximum): 2.0 (2.0–10) h
  t1/2, harmonic mean (pseudo-standard deviation): 1.88 (0.794) h
  Cmax, geometric mean (mean, %CV): 195 (238, 61) ng/ml
[1]; [16]
  AUCinf, geometric mean (mean, %CV): 664 (679, 21) ng•h/ml
  AUCt, geometric mean (mean, %CV): 643 (659, 22) ng•h/ml
  RAUCinf, metabolite-to-omeprazole AUCinf ratio, median (minimum–maximum): 0.20 (0.071–0.90)
  RAUCt, metabolite-to-omeprazole AUCt ratio, median (minimum–maximum): 0.20 (0.071–0.84)
  Tmax, median (minimum–maximum): 3.0 (1.0–8.0) h
  t1/2, harmonic mean (pseudo-standard deviation): 1.97 (0.901) h
  Cmax, geometric mean (mean, %CV): 134 (142, 34) ng/ml
[1]; day 11 vs day 1, EM subjects
  decrease in AUCinf: 23%
[1]; day 11 vs day 1, IM subjects
  decrease in AUCinf: 30%
[1]; day 11 vs day 1, PM subjects
  decrease in AUCinf (exposure): 20%
[1]; day 11 vs day 1, all subjects
  decrease in AUCinf (exposure): 25%
  decrease in Cmax: approximately 30%
  decrease in metabolite-to-parent (M:P) AUC ratio: ~ 60%
  increase in Tmax: 1 h

## C[C@H]1O[C@@H](O[C@H]2[C@@H](O)C[C@H](O[C@H]3[C@@H](O)C[C@H](O[C@H]4CC[C@@]5(C)[C@H](CC[C@@H]6[C@@H]5C[C@@H](O)[C@]5(C)[C@@H](C7=CC(=O)OC7)CC[C@]65O)C4)O[C@@H]3C)O[C@@H]2C)C[C@H](O)[C@@H]1O [digoxin]
[2]
  increase in AUC: 26%
  increase in Cmax: 71%

## COc1cccc(-c2c(C)n(Cc3c(F)cccc3C(F)(F)F)c(=O)n(C[C@H](NCCCC(=O)O)c3ccccc3)c2=O)c1F [elagolix]
[3]
  IC50: 54 µM
[4]
  Ki: 34 µM
  kinact: 0.029 min⁻¹
[5]
  Cmax: 1410 ng/mL
[6]
  maximum induction: 20 fold
[7]
  clinical CYP2C19 inhibitor classification: weak inhibitor
[8]; from midazolam DDI
  CYP3A inducer classification: weak to moderate inducer

## Cc1ncc2n1-c1ccc(Cl)cc1C(c1ccccc1F)=NC2 [midazolam]
[8]; with elagolix 150 mg q.d.
  reduction in AUC: 35%
[8]; with elagolix 300 mg b.i.d.
  reduction in AUC: 54%

## COc1ccc2[nH]c([S+]([O-])Cc3ncc(C)c(OC)c3C)nc2c1 (stereo not shown) [omeprazole, reference compound]
[1]; [17]
  increase in AUCinf (exposure): 1.8 fold
  increase in Cmax: 1.9 fold
[1]
  change in Tmax: unchanged
  change in terminal elimination half-life: unchanged
[1]; day 11 vs day 1, EM subjects
  increase in AUCinf: 2 fold
[1]; day 11 vs day 1, IM subjects
  increase in AUCinf: 2.6 fold
[1]; day 11 vs day 1, PM subjects
  decrease in AUCinf (exposure): 40%
  increase in Cmax: 23%
[1]; human, plasma, oral, 40 mg, Tmax, individual subjects, three PM subjects, day 1
  Tmax: 8 h
[1]; three PM subjects, day 1
  Tmax, individual subjects: 10 h and 2 h
[1]; three PM subjects, day 11
  Tmax, individual subjects: 2 h (2×) and 1 h
[9]; subjects heterozygous for ABCB1 mutant alleles
  model-estimated absorption rate constant, higher vs homozygous wild-type: 2 fold
[9]; subjects homozygous for ABCB1 mutant alleles
  model-estimated absorption rate constant, higher vs homozygous wild-type: 7 fold
[10]
  estimated fraction absorbed and escaping intestinal first pass (fa*fg): approximately 0.80
[11]
  Biopharmaceutics Classification System (BCS) class: Class 2
[12]
  increase in AUC: more than 2 fold
  increase in Cmax: more than 2 fold

## COc1ccc2nc(S(=O)(=O)Cc3ncc(C)c(OC)c3C)[nH]c2c1 [omeprazole sulfone]
[1]; [13]
  M:P AUCinf ratio, central value: 0.825
  M:P AUCt ratio, central value: 0.679
[1]; [14]
  M:P AUCinf ratio, central value: 1.028
  M:P AUCt ratio, central value: 1.017
[1]
  M:P AUCinf ratio, relative bioavailability point estimate: 1.246
  M:P AUCt ratio, relative bioavailability point estimate: 1.497
  change in Tmax: relatively unchanged
  change in terminal elimination half-life: relatively unchanged
[1]; PM subjects
  change in Cmax after elagolix dosing: unchanged
[1]; [15]
  RAUCinf, metabolite-to-omeprazole AUCinf ratio, median (minimum–maximum): 0.85 (0.52–1.1) ^e
  RAUCt, metabolite-to-omeprazole AUCt ratio, median (minimum–maximum): 0.76 (0.13–1.1)
[1]; [16]
  RAUCinf, metabolite-to-omeprazole AUCinf ratio, median (minimum–maximum): 0.99 (0.71–1.5)
  RAUCt, metabolite-to-omeprazole AUCt ratio, median (minimum–maximum): 0.97 (0.67–1.5)
[1]; [17]
  increase in AUCinf (exposure): 2.5 fold
  increase in Cmax: 2.7 fold
[1]; day 11 vs day 1, EM and IM subjects
  increase in exposures: ~ 3 fold
[1]; day 11 vs day 1, EM subjects
  increase in AUCinf: 2.7 fold
[1]; day 11 vs day 1, IM subjects
  increase in AUCinf: 3 fold
[1]; day 11 vs day 1, all subjects
  increase in metabolite-to-parent (M:P) AUC ratio: 25%
[1]; one PM subject with AUCinf on both days
  AUCinf on day 11 lower compared to day 1: 40%
